Data taken from ChEMBL document CHEMBL1201862, “PubChem BioAssay data set” (2004).
The source made the active and inactive calls.

Experiments:
[1] = target: Heat shock protein HSP 90-alpha (Homo sapiens, UniProt P07900); format: functional, organism-based
[2] = target: T1, Short transient receptor potential channel 4 (Mus musculus, UniProt Q9QUQ5); experiment: calcium entry via TRPC4 opening agents – cell-based, HEK293 TRPC4/mu-opioid, Fluo-4 calcium, dose response (AID 434937); format: functional
T1 sequence (Q9QUQ5 whole entry): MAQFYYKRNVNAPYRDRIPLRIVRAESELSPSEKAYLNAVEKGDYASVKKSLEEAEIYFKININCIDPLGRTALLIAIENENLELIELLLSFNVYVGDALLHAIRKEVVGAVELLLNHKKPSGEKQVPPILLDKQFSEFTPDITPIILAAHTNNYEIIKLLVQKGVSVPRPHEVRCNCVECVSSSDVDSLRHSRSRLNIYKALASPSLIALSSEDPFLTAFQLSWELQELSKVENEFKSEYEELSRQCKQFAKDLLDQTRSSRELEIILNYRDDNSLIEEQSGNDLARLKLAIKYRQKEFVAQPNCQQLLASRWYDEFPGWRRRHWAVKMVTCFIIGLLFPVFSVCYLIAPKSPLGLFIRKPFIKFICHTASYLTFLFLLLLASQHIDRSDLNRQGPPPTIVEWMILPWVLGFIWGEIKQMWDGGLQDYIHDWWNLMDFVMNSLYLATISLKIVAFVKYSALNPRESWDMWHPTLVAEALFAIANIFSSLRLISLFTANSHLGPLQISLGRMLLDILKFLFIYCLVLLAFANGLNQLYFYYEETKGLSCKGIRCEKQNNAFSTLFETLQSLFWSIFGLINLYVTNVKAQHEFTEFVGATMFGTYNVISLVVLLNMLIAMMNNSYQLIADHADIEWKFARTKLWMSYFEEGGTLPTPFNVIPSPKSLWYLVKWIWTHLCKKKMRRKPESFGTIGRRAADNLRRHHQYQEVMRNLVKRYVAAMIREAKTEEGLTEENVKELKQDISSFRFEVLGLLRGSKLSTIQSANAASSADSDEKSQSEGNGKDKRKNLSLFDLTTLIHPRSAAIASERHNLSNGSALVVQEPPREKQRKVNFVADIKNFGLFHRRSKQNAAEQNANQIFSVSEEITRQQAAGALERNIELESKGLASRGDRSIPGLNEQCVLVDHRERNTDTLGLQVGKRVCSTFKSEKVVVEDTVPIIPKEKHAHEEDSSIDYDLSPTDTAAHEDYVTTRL

[3] = viability of uninfected HEp-2 cells – cell-based, HTS, cytotoxicity control for RSV inhibitor project, dose response (AID 2410); format: functional; conditions: human respiratory syncytial virus
[4] = cells
[5] = target: Genome polyprotein (dengue virus type 2, UniProt P29990); experiment: flavivirus cap methylation enzyme inhibition – biochemical, confirmation dose response, primary screen (AID 588689); format: functional
[6] = Luminescence Cell-Based Dose Confirmation HTS to Identify Activators of 5'UTR Stem-Loop Driven Alpha-Synuclein mRNA Translation in H4 Neuroglioblastoma Cells. [Related pubchem assays: 1829 (Project Summary), 1814 (Primary HTS)]; format: functional
[7] = system: H4; experiment: Luminescence Cell-Based Dose Response HTS to Identify Activators of 5'UTR Stem-Loop Driven Prion Protein mRNA Translation in H4 Neuroglioblastoma Cells. [Related pubchem assays: 1829 (Project Summary), 1814 (Primary HTS)]; format: functional; conditions: Homo sapiens
[8] = Luminescence Cell-Based Dose Response HTS to Identify Activators of Luciferase Translation or Activity in H4 […] Cells. [Related pubchem assays: 1829 (Project Summary), 1814 (Primary HTS)]; format: functional
[9] = target: T2, Polyadenylate-binding protein 1 (Homo sapiens, UniProt P11940); experiment: MLLE domain peptide-binding blockers, IC50 – biochemical, fluorescence polarization, FITC-PAM2 peptide, dose response (AID 602259); format: functional; conditions: read-out: IC50_Mean
[10] = target: T2, Polyadenylate-binding protein 1; experiment: MLLE binding blockers, Cy5 peptide tracer – biochemical, fluorescence polarization, Cy5-PAM2 peptide, secondary, miRNA deadenylation inhibitor project, dose response (AID 602260); format: functional; conditions: read-out: IC50_Mean
[11] = microbe, parasite or virus in culture; format: functional; conditions: Mycobacterium tuberculosis
[12] = Trypanosoma cruzi growth suppression in host cells – NIH3T3 host cells, beta-gal luminescence, confirmation (AID 2044); format: functional, cell-based;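 also: intracellular parasites grown in NIH/3T3 mouse fibroblasts as host cells; luminescent beta-galactosidase reporter signal from transgenic T. cruzi replicating inside host cells; inhibitors lower the luminescence signal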
[13] = NIH3T3 cell viability loss – ATP luminescence, mouse fibroblasts, counter-screen, dose response (AID 2010); format: functional, cell-based;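 also: cells exposed to compound for about 90 hours before reading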
[14] = Vero E6 cell cytotoxicity, dose response, cytotoxicity control for non-replicating M. tuberculosis project, secondary assay (AID 492998); format: functional, VeroE6; conditions: Vero C1008
[15] = THP-1 cell cytotoxicity, dose response, cytotoxicity control for non-replicating M. tuberculosis project (AID 489025); format: functional
[16] = system: Vero; experiment: cells; format: functional; conditions: Chlorocebus sabaeus
[17] = cells; format: functional
[18] = NIH-3T3 fibroblast cytotoxicity, dose response, cytotoxicity control, cell-based, fluorescence, Alamar Blue, secondary assay (AID 2327); format: functional;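 also: NIH-3T3 mouse fibroblasts cultured with fluconazole at 8 µg/mL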
[19] = system: INS1; experiment: INS-1E survival protection against cytokine death – cell-based, luminescence, retest, dose response (AID 449756); format: functional; conditions: Rattus norvegicus;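 also: cell death triggered by IL-1 beta plus TNF-alpha plus IFN-gamma mixture; protective hits raise ATP signal compared with cytokine alone wells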
[20] = viability of PTEN-deleted HCT116 cells – cell-based, HCT116 PTEN knockout, dose response (AID 1047); format: functional;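 also: HCT116 colon tumor cells with PTEN knocked out; cells exposed to compound for 60 hours before readout; potency for loss of cell viability measured by luminescence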
[21] = viability of HCT116 lacking mutant beta-catenin – cell-based, human colon tumor, dose response (AID 1045); format: functional;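 also: HCT116 colon tumor cells with beta catenin knocked out; cells exposed to compound for 60 hours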
[22] = target: T3, Microphthalmia-associated transcription factor (Homo sapiens, UniProt O75030); experiment: reducers of TRPM1 reporter luminescence, concentration series – cell-based, SK-MEL-5, cherry-picked, set 3, MITF inhibitor project, dose response (AID 493073); format: functional;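 also: SK-MEL-5 melanoma cells with luciferase driven by the MITF target TRPM1 promoter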
T3 sequence (O75030 whole entry): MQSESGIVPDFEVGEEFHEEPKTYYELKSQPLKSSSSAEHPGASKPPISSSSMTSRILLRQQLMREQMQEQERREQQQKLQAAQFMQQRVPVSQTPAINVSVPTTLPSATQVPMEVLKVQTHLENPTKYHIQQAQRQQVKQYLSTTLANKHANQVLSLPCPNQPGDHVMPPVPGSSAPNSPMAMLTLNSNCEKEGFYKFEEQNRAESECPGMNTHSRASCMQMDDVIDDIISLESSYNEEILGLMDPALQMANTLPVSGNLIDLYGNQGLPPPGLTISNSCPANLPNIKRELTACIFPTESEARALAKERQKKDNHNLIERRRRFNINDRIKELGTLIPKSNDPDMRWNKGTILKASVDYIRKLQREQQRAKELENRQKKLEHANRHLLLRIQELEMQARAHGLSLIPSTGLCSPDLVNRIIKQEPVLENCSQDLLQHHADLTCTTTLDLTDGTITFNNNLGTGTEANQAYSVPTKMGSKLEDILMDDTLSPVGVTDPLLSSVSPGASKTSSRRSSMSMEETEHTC

[23] = fluconazole-exposed Candida albicans growth modulators – fluorescence, retest, confirmation (AID 2467); format: functional, cell-based
[24] = Dd2 malaria parasite growth inhibition potency – SYBR Green, dry powder samples, dose response (AID 1159566); format: functional, cell-based;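 also: potency for growth inhibition with lower SYBR green DNA signal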
[25] = growth inhibition of yeast DHODH-expressing 3D7 parasites – SYBR Green, dry powder samples, dose response (AID 1159570); format: functional, cell-based;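 also: parasite growth measured after 72 hours of compound exposure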
[26] = growth inhibition of PfATP4-mutant resistant parasites – NITD609-resistant line, SYBR Green, dry powder, dose response (AID 1159571); format: functional, cell-based;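 also: parasites synchronized at ring stage by sorbitol before testing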
[27] = P. falciparum Dd2 growth inhibitors, dose response, SYBR Green, cherry-picked samples (AID 1159567); format: functional, cell-based
[28] = target: T4, High affinity choline transporter 1 (Homo sapiens, UniProt Q9GZV3); experiment: human choline transporter blockers, potency – cell-based, 5-point CRC, membrane potential dye, dose response (AID 504840); format: functional
T4 sequence (Q9GZV3 whole entry): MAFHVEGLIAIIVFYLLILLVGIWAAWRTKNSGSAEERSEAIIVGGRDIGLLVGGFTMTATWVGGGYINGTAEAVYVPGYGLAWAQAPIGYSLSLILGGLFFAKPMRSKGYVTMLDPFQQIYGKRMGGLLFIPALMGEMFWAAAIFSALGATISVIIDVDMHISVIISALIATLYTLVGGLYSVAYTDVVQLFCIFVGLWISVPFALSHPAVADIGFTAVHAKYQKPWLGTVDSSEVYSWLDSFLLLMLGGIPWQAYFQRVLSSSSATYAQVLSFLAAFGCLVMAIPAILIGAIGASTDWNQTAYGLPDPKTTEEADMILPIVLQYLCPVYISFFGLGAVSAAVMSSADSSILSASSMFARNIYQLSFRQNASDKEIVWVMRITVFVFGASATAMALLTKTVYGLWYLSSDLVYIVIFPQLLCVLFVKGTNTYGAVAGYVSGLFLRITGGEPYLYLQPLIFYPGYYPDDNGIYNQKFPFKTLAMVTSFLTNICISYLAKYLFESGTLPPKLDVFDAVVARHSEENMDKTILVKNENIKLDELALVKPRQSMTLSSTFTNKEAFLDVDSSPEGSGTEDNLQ

T2 sequence (P11940 whole entry, the tested form may be a part): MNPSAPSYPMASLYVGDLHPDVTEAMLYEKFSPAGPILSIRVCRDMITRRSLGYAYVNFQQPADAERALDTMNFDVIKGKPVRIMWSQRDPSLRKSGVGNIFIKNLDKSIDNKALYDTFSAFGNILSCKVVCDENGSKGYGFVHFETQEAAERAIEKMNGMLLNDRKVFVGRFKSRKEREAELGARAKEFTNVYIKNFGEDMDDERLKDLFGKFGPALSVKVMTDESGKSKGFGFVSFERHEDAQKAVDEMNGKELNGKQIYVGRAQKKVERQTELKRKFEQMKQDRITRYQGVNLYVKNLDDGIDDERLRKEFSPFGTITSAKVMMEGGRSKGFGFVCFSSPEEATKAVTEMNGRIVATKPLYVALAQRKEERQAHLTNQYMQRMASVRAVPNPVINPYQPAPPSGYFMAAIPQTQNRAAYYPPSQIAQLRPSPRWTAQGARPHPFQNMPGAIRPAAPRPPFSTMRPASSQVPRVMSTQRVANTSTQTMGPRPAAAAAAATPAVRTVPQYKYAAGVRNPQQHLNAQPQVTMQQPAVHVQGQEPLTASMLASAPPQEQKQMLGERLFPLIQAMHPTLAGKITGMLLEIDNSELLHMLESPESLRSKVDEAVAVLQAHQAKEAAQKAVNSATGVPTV
Sequence of Genome polyprotein (P29990 2492-3391 limits assumed): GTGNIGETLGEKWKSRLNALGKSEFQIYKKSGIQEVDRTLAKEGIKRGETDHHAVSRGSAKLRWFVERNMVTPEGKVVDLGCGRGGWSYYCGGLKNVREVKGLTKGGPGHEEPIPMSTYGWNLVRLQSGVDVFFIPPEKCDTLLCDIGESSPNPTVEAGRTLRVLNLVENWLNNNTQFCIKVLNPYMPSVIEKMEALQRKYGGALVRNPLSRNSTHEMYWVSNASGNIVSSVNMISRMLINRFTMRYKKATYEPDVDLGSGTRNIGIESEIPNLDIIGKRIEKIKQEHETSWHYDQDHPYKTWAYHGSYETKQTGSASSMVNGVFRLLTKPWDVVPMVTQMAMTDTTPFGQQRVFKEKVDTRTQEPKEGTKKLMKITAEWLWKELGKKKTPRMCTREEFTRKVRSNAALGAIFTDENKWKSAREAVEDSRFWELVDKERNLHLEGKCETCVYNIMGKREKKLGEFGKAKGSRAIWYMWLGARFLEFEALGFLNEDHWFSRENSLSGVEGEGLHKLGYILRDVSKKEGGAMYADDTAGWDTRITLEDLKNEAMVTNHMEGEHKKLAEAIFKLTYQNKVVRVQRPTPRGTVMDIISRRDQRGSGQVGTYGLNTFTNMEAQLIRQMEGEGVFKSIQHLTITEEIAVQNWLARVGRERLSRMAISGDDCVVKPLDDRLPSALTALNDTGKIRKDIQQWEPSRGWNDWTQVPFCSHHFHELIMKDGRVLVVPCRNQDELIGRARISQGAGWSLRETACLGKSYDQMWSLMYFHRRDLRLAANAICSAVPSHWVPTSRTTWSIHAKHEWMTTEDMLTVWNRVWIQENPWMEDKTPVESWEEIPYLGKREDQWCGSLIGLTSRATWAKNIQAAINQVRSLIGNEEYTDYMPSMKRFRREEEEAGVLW

C[C@@]12C(=O)Nc3ccc(Cl)cc3C(=O)N1[C@H]1c3ccccc3OC[C@@H]1[C@@H]2c1ccccc1
AC50 [1]: 0.611 µM (active)

CCCOc1ccc(N2C(=O)CC(N3CCC(C(=O)OCC)CC3)C2=O)cc1 (centres undefined)
AC50 [1]: 3.1 µM (active)

COc1cccc(C(=O)OC2CCCN(C)C2)c1 (centres undefined)
EC50 [2]: 0.376 µM (active)

Cc1csc2c(N3CCN(C(=O)Nc4ccccc4)CC3)ncnc12
EC50 [2]: 1.68 µM (active)

Cc1ccc(NC(=S)NC2CC3CCC(C2)N3Cc2ccco2)c(C)c1 (centres undefined)
EC50 [2]: 5.96 µM (active)

Cc1ccc2c(c1)COc1c3ccc(C(=O)N[C@@H](C)CO)cc3nn1-2
CC50 [3]: > 50 µM (active)
IC50 [4]: 41.5 µM (active)

CCN(CC)C1=N/C(=C\c2ccc(OC)cc2)C(=O)N1c1ccccc1
CC50 [3]: 9.86 µM (active)
IC50 [4]: 4.49 µM (active)

CC1=NN(c2ccc(Br)cc2)C(=O)/C1=C/c1ccc(-c2ccccc2C(=O)O)o1
IC50 [5]: 30 µM (active)

c1ccc(Cn2nnc3c(N4CCCCCC4)ncnc32)cc1
CC50 [3]: 17 µM (active)
IC50 [4]: 49.5 µM (active)

COc1ccccc1C(=O)NNC(=S)NC(=O)c1ccco1
AC50 [1]: 1.42 µM (active)

COc1cc(/C=C2/C(=N)N3C(c4ccccc4)=CSC3=NC2=O)ccc1OCC(=O)O
IC50 [5]: > 100 µM (active)
EC50 [6]: 19.6 µM (active)
EC50 [7]: > 120 µM (not active)
EC50 [8]: 12.7 µM (active)

COCCn1nnnc1C(c1cc2ccc(OC)cc2nc1O)N1CCN(C2CCCCC2)CC1 (centres undefined)
EC50 [2]: 3.76 µM (active)

Cc1cc[n+](-c2[n-]c(=O)sc2C=NNC(=O)c2ccncc2)cc1
IC50 [5]: 83.8 µM (active)
IC50 [9]: 36 µM (inactive)
IC50 [10]: > 66 µM (inactive)

Nc1ccc(-c2nc3cc(-c4nc5ccccc5o4)ccc3[nH]2)cc1
CC50 [3]: 48.2 µM (active)
IC50 [4]: 33.4 µM (active)
CC50 [11]: > 40 µM (active)

Cn1c2ccccc2c(=O)c2c(=O)n(Cc3ccco3)c(-c3ccc(Cl)cc3Cl)nc21
EC50 [12]: 0.978 µM (active)
EC50 [13]: > 30 µM (not active)
CC50 [3]: 15.5 µM (active)
IC50 [4]: 10.2 µM (active)

CCOC(=O)CN1C(=O)N[C@@H](c2cccc(F)c2)C(C(C)=O)=C1C
CC50 [3]: 44.1 µM (active)
IC50 [4]: 12.8 µM (active)

CCCCN(CC)CCCNC(=O)c1csc2c1CCCCC2
EC50 [2]: 1.19 µM (active)

CSc1nc(O)c(C(c2ccc(OC(C)C)cc2)c2c(O)nc(SC)nc2O)c(O)n1
IC50 [5]: 32.9 µM (active)

CN(C)C(CNC(=O)/C=C/c1cccc(Cl)c1)c1ccccc1 (centres undefined)
EC50 [2]: 0.133 µM (active)

O=C(Nc1ccccn1)c1ccc([N+](=O)[O-])o1
CC50 [14]: 13.4 µM (active)
CC50 [15]: 26.3 µM (active)
CC50 [16]: > 25 µM (active)
IC50 [17]: 13.6 µM (active)

O=C1CCC/C(=N/Nc2ccc(Cl)cc2)C1
IC50 [5]: 93.3 µM (active)
CC50 [15]: > 40 µM (active)
EC50 [18]: > 150 µM (inactive)
IC50 [17]: 16.9 µM (active)

O=C(N/N=C\c1ccc([N+](=O)[O-])s1)c1cncc(Br)c1
AC50 [19]: 7.04 µM (active)
EC50 [20]: 1.09 µM (active)
EC50 [21]: 0.452 µM (active)
CC50 [14]: 4.83 µM (active)
CC50 [15]: 5.8 µM (active)
EC50 [18]: 29.4 µM (active)
AC50 [22]: 4.34 µM (active)
EC50 [23]: 4.15 µM (active)
IC50 [17]: 12.6 µM (active)

C[C@@H]1CN([C@@H](C)CO)C(=O)c2cccc(NC(=O)c3nc4ccccc4s3)c2O[C@H]1CN(C)C(=O)Nc1cccc2ccccc12
AC50 [24]: 0.766 µM (active)
AC50 [25]: 0.595 µM (active)
AC50 [26]: 0.802 µM (active)

COc1ccc(-c2ccc([C@H]3[C@H](C#N)N(C(=O)c4cccc(F)c4)[C@H]3CO)cc2)cc1
AC50 [27]: 2.71 µM (active)
AC50 [24]: 1.85 µM (active)
AC50 [25]: 2.24 µM (active)
AC50 [26]: 2 µM (active)

Cc1ccc(C(=O)/C=C/C(=O)O)cc1
IC50 [5]: > 100 µM (active)
IC50 [9]: > 66 µM (inactive)
IC50 [10]: > 66 µM (inactive)
IC50 [28]: 10.5 µM (active)

NC(=O)COc1ccc2c3c(c(=O)oc2c1)CCCCC3
EC50 [18]: > 160 µM (inconclusive)
EC50 [23]: > 38 µM (not active)
IC50 [4]: 42.2 µM (active)
